Assays:
C. albicans = test: Titration of microorganism spot with Reichardt's dye solution; details: 10^7 CFU/ml, 100 μl; dye 160 mg in 10 g acetonitrile, 10 μl aliquots
autoclaved S. aureus = test: Autoclaved bacteria sprayed with Reichardt's dye indicator spray; details: S. aureus 10^6 CFU/mL autoclaved; spray 160 mg in 10 g isopropanol
Description: In order to verify that the bacterial cell wall plays a critical role in this reaction, a vial of S. aureus (10^6 CFU/mL) was autoclaved before testing with the indicator spray (160 mg Reichardt's Dye in 10 g of isopropanol). Autoclaving kills bacteria by essentially blowing the cell wall apart. The steam from the autoclave penetrates the bacteria and rips the membrane apart.

[1] = test system: bacterial spores such as Anthracis bacillus
S. aureus protoplasts = test: Protoplasts on label coated with Reichardt's dye; details: 100 μL aliquot, label coated with 80 mg/10 g acetonitrile, approximately 5 minutes
Description: An additional test to verify reaction with the cell wall was performed by creating protoplasts through enzymatic digestion of the bacterial cell wall. […] Louis, Mo.) suspended in TM buffer (0.05 M Tris-HCl, pH 7.4, 20 mM MgCl2) with 15% (w/v) of sucrose (Sigma-Aldrich, St. Louis, Mo.). The reaction was carried out for one hour at 30° C., after which the solution was centrifuged at 10,000×g, and rinsed twice with TM buffer containing 13% (w/v) sucrose according to methods detailed by Taku and Fan (The Journal of Biological Chemistry, 1979). The solution containing protoplasts was reacted (100 μL aliquot) with an Avery label coated with Reichardt's dye (80 mg/10 g acetonitrile). Untreated bacteria was diluted 10 fold in the TM/13% sucrose buffer (without lysozyme) and were placed on the label as a positive control.

G. vaginalis = test: Titration of microorganism spot with Reichardt's dye solution; details: 10^7 CFU/ml, 100 μl; dye 160 mg in 10 g acetonitrile, 10 μl aliquots
A. niger = test: as above; details: 10^5 CFU/mL, 100 μl; dye 160 mg in 10 g acetonitrile, 10 μl aliquots
vegetative organism = test system: vegetative organism; set-up: species or system Anthracis bacillus
Rhinovirus Type 42 = test: Reichardt's dye-treated samples with upper respiratory viruses; details: compared with Salmonella bacterial control at a similar concentration
Lactobacillus = test: Titration of microorganism spot with Reichardt's dye solution; details: 10^7 CFU/ml, 100 μl; dye 160 mg in 10 g acetonitrile, 10 μl aliquots
P. aeruginosa = test: as above; details: 10^7 CFU/ml, 100 μl; dye 160 mg in 10 g acetonitrile, 10 μl aliquots
Salmonella = test: Dye-coated absorbent substrate tested with Salmonella-containing liquid; details: 100 microliter aliquots on dye-coated substrate
Text: Gibraltar Labs (Fairfield, N.J.) placed 100 microliter aliquots of the solutions onto the absorbent substrate.

S. aureus [2] = test: Titration of microorganism spot with Reichardt's dye solution; details: 10^7 CFU/ml, 100 μl; dye 160 mg in 10 g acetonitrile, 10 μl aliquots
Text: (§1) 10^7 CFU/ml of S. aureus.

E. coli = test: as above; details: 10^7 CFU/ml, 100 μl; dye 160 mg in 10 g acetonitrile, 10 μl aliquots
Text: as §1

gram-positive bacteria = test: Visible colour change of Reichardt's dye-coated absorbent substrate, serial dilutions of bacteria; details: 100 μl aliquot on dye-coated substrate, colour change visible to the eye
S. aureus [3] = test: Standard curve on dye-coated paper, Delta E against log CFU/mL; details: paper coated with 80 mg/10 g acetonitrile, 100 μL aliquots, spectrophotometer CIELAB
[4] = test system: Influenza A (ATCC # VR-544); test: Reichardt's dye-treated samples with upper respiratory viruses; details: compared with Salmonella bacterial control at a similar concentration
[5] = test system: Streptococcus pyogenes (ATCC # 10782); test: Reichardt's dye-treated samples with upper respiratory pathogens; details: 100 microliters
Text: (§2) It has been observed in prior experiments that gram positive bacteria elicit a stronger de-colorization response than other types of microorganisms.

[6] = test system: Haemophilus influenzae (ATCC # 49247); test: as above; details: 100 microliters
Text: as §2

[7] = test system: Streptococcus pneumoniae (ATCC # 10015); test: as above; details: 100 microliters
Text: as §2

[8] = test system: Moraxella lacunata (ATCC # 17972); test: as above; details: 100 microliters
Text: as §2

[9] = Bacterial cell-wall components on dye-coated substrate and titration with Reichardt's dye; details: 5%, 1%, 0.2% (wt/wt) solutions (pure LPS 0.1%, 0.02%, 0.004%); both experimental set-ups

Q: Which results are given for `[O-]c1c(-c2ccccc2)cc(-[n+]2c(-c3ccccc3)cc(-c3ccccc3)cc2-c2ccccc2)cc1-c1ccccc1` [Reichardt's dye, 4-(2,4,6-triphenylpyridinium-1-yl)-2,6-diphenylphenolate]?
A: Amount of Dye Required for Persistent Color (C. albicans): 70 µL; de-colorization of the dye (autoclaved S. aureus): no de-colorization was observed; sensitivity of the dye to bacterial spores [1]: not sufficiently sensitive; de-colorization of the dye (S. aureus protoplasts): minimal de-colorization; Amount of Dye Required for Persistent Color (G. vaginalis): 90 µL; Amount of Dye Required for Persistent Color (A. niger): 50 µL; de-colorization of the dye (vegetative organism): de-colorization occurred; de-colorization of the dye (Rhinovirus Type 42): markedly less de-colorization; Amount of Dye Required for Persistent Color (Lactobacillus): 110 µL; Amount of Dye Required for Persistent Color (P. aeruginosa): 80 µL; de-colorization of the dye (Salmonella): decolorized the dye; Amount of Dye Required for Persistent Color (S. aureus [2]): 90 µL; Amount of Dye Required for Persistent Color (E. coli): 90 µL; lower limit for indication of gram-positive bacteria (gram-positive bacteria): 100 CFU/ml; responsiveness of the dye (Delta E) (S. aureus [3]): dose-dependent; de-colorization of the dye [4]: markedly less de-colorization; de-colorization of dye-treated samples [5]: de-colorized; de-colorization of dye-treated samples [6]: de-colorized; de-colorization of dye-treated samples [7]: de-colorized; de-colorization of dye-treated samples [8]: de-colorized

Q: With `C[C@@H](O[C@H]1[C@H](O)[C@@H](CO)OC(O)[C@@H]1N)C(=O)O` (stereo partly drawn) [Muramic acid, muramic acid] as the molecule, how does the “de-colorization of Reichardt's dye by cell-wall component” value [9] read?
A: strongest reaction, resulting in a near instantaneous de-colorization of the dye
